From article PMC5608804, “Stepwise Evolution Improves Identification of Diverse Peptides Binding to a Protein Target” (Scientific Reports, 2017)

Biological target: T1, streptavidin (Streptomyces avidinii, UniProt P22629)
T1 construct: purchased GE Healthcare (Little Chalfont, UK)
Experiment: Cy5-streptavidin binding on HotSpot discovery array, 5-mer L-peptide library
Details: 5-mer L-peptide library array, Cy5-streptavidin; from average of three arrays
Source text: To identify hotspot sequences that bind to streptavidin (SA), we bound Cy5-SA to an array library of 2,476,099 5-mer L-peptides synthesized with 19 of 20 natural amino acids (excluding cysteine). The fluorescence signal intensity was aggregated across three independently synthesized arrays; then the 2,047 peptides with a signal-to-background ratio (S/B) >4 were selected. The data was further filtered to select 1,100 peptides for which signal intensities were highly correlated on all 3 arrays (the percentage of mean deviation to mean was <10%, see Supplementary dataset Table 2A). Most selected sequences (1,019 of 1,100) contained HP, PQ, or PM sequences: their presence would be expected in the well-known HPQ and HPM streptavidin binders[13]–[18].
The comprehensive peptide library included 2,476,099 5-mer peptides synthesized in a single copy with 19 of 20 L- or D-amino acids (excluding cysteine). Libraries were flanked on both N- and C-termini by linkers of 1 or 3 amino acids using a 3:1 glycine-serine mixture.
Cy5™-streptavidin (Cy5-SA) was purchased from GE Healthcare (Little Chalfont, UK). Freshly deprotected arrays were used in each experiment. Streptavidin binding to all arrays was performed with 0.5 µg/ml Cy5-SA either in binding buffer containing 10 mM Tris-HCl (pH 7.4), 1% alkali-soluble casein (EMD Millipore), 0.05% Tween-20 or in 10 mM Tris-HCl (pH 7.4), 4% BSA (Roche, Basel, Switzerland), 0.05% Tween-20 in a 30 mL PAP Jar container (Evergreen Scientific, Vernon, CA) overnight at 4° C. After incubation, arrays were washed in 20 mM Tris-HCl (pH 7.8), 0.2 M NaCl, 1% SDS or 1X TBS (pH 7.4) for 30 sec followed by a 1 min wash in water, and then dried by spinning in a microcentrifuge equipped with an array holder.
Cy5 fluorescence intensity of the arrays was measured with an MS200 scanner (Roche NimbleGen, Madison, WI) at resolution 2 µm, wavelength 635 nm, gain 25%, and laser intensity 100%. Cy5 signal intensities were extracted using Image Extraction Software (Roche NimbleGen). Data pre-processing, normalization, and statistical tests were performed using the language R. Data visualization and analysis was performed with the Spotfire 6.5.0 (Tibco, Boston, MA) software platform. Distance analysis and principle component analysis of distance matrices were performed with the R package PEPLIB[19].

T1 sequence (P22629 25-183): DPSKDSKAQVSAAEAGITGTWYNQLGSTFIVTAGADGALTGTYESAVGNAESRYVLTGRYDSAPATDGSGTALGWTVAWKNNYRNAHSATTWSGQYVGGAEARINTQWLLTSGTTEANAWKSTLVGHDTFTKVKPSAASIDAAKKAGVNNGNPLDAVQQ

Substance	S/B (signal to background ratio)
AAHPM	35.3
AAHPQ	123.9
AFHPQ	177.5
AGHPQ	137.1
AHHPQ	131.6
AHPMS	27.6
AHPQG	120.5
AHPQM	32.6
AHPQQ	34.0
ALHPM	39.7
ALHPQ	123.6
AMHPM	42.8
AMHPQ	124.0
ANHPM	47.0
APHPM	38.6
APHPQ	142.8
ASHPQ	130.1
ATHPQ	135.7
AVHPM	23.8
AWHPQ	172.2
DDHPQ	31.9
DEHPQ	26.0
DFHPM	36.4
DHHPM	32.9

Substance	S/B (signal to background ratio)
DHPMG	29.8
DHPQH	31.2
DHPQK	32.1
DHPQS	49.1
DYHPM	28.4
EDHPQ	34.6
EEHPQ	27.3
EGHPM	22.4
EHHPM	31.0
EHPQF	53.2
EHPQR	45.0
EHPQS	36.4
EHPQV	41.0
EHPQY	22.3
ELHPQ	56.4
EMHPQ	44.9
ENHPM	23.5
EPHPM	23.1
EQHPQ	43.8
ERHPQ	134.2
ETHPQ	49.0
EVHPQ	44.3
EWHPM	38.1
FAHPQ	186.9

Substance	S/B (signal to background ratio)
FDHPQ	121.8
FFHPQ	192.2
FHHPQ	219.2
FHPMM	24.3
FHPMN	26.9
FHPMS	46.0
FHPMV	27.2
FHPQA	138.8
FHPQG	146.3
FHPQN	168.8
FHPQQ	49.0
FHPQT	34.8
FHPQW	22.2
FHPQY	56.4
FIHPQ	152.7
FKHPM	44.4
FKHPQ	123.2
FLHPQ	145.5
FMHPQ	206.0
FPHPQ	173.5
FQHPQ	161.2
FRHPQ	211.5
FSHPQ	192.9

Same assay, conditions: 5-mer L-peptide library array, Cy5-streptavidin; from the average of three arrays

Substance	S/B (signal to background ratio)
ADHPQ	69.7
AHPMA	60.9
AHPQS	79.9
ANHPQ	115.8
AYHPM	66.7
DAHPQ	62.6
DFHPQ	75.2
DGHPQ	62.6
DHPQA	83.3
DHPQG	77.3
DHPQN	72.7
DLHPQ	60.4
DMHPQ	69.3
DNHPQ	74.6
DPHPQ	88.5
DRHPQ	87.4
DSHPQ	74.0
DTHPQ	68.3
DYHPQ	103.8
EFHPQ	100.0
EHHPQ	87.5

Substance	S/B (signal to background ratio)
EHPQA	70.0
EHPQG	64.3
EHPQN	71.2
ENHPQ	78.3
ESHPQ	64.3
EYHPQ	96.9
FAHPM	90.2
FEHPQ	96.4
FFHPM	89.2
FHHPM	95.4
FHPMG	59.2
FHPQM	58.1
FHPQS	97.1
FHPQV	107.2
FIHPM	68.2
FLHPM	84.7
FMHPM	101.3
FNHPM	96.1
FRHPM	89.2
FSHPM	91.4

Same assay, conditions: 5-mer L-peptide library, from the average of three arrays

Substance	S/B (signal to background ratio)
AHPQP	4.1
DWDSW [L-amino acid 5-mer array peptide]	4.9
EHPMY	4.5
EVHPM	5.0
FDDFL [L-amino acid 5-mer array peptide]	5.0
FDEWL [L-amino acid 5-mer array peptide]	4.8
FFMIM [L-amino acid 5-mer array peptide]	5.1
FFMMF [L-amino acid 5-mer array peptide]	4.3
FHPMW	5.1
FHPQE	5.1
FLGHP	4.2
FMFMF [L-amino acid 5-mer array peptide]	4.2
FMFMI [L-amino acid 5-mer array peptide]	4.3
FMPHP	5.0

Same assay, conditions: average of three arrays, L-peptide 5-mer library

Substance	S/B (signal to background ratio)
DPFGW [L-amino acid 5-mer array peptide]	10.1
DWDKV [L-amino acid 5-mer array peptide]	5.7
DWDSW [L-amino acid 5-mer array peptide]	4.9
FDAWL [L-amino acid 5-mer array peptide]	11.9
FDDFL [L-amino acid 5-mer array peptide]	5.0
FDEWL [L-amino acid 5-mer array peptide]	4.8
FDGWL [L-amino acid 5-mer array peptide]	6.7
FDKWL [L-amino acid 5-mer array peptide]	15.9
FDNWL [L-amino acid 5-mer array peptide]	9.9
FDSWL [L-amino acid 5-mer array peptide]	8.0
FDTWL [L-amino acid 5-mer array peptide]	7.3
FFMIM [L-amino acid 5-mer array peptide]	5.1
FFMMF [L-amino acid 5-mer array peptide]	4.3
FMFMF [L-amino acid 5-mer array peptide]	4.2
FMFMI [L-amino acid 5-mer array peptide]	4.3

Same assay, conditions: signal to background ratio; 5-mer L-peptide library array, Cy5-streptavidin

Substance	S/B
AHPMF	10.8
AHPMY	7.7
AHPQD	10.2
AHPQI	15.7
AHPQK	12.1
AHPQT	18.8
AKHPM	18.3
DDHPM	11.6
DHPMK	13.3
DHPMM	5.6
DHPMN	12.4
DHPMY	6.4
DHPQT	8.9
DKHPM	18.2
DPFGW [L-amino acid 5-mer array peptide]	10.1
DSHPM	17.9
DWDKV [L-amino acid 5-mer array peptide]	5.7

Substance	S/B
EAHPM	16.5
EHPQI	6.3
EHPQQ	16.2
EIHPM	9.9
ESHPM	17.2
FDAWL [L-amino acid 5-mer array peptide]	11.9
FDGWL [L-amino acid 5-mer array peptide]	6.7
FDKWL [L-amino acid 5-mer array peptide]	15.9
FDNWL [L-amino acid 5-mer array peptide]	9.9
FDSWL [L-amino acid 5-mer array peptide]	8.0
FDTWL [L-amino acid 5-mer array peptide]	7.3
FHPMF	14.7
FHPQK	14.2
FHPQL	7.4
FHPQP	6.3
FLHHP	5.9
